System: bleomycin-induced idiopathic pulmonary fibrosis in mice
Experiment: Mouse model of pulmonary fibrosis induced by bleomycin, inhalation versus oral administration
Format: in vivo, ICR mice
Details: once a day for 22 days
Description: In order to investigate the efficacy of itraconazole suspension of the present invention by inhalation administration, a mouse model of pulmonary fibrosis induced by bleomycin 2 mg/kg/mouse was established and compared with that by oral administration.
Test animals: ICR mice: SPF grade, body weight 22-24 g, male.
Test drugs: itraconazole suspension prepared in Example 3
Model establishment: 2 mg/kg of bleomycin hydrochloride for injection was sprayed into the respiratory tract of each mouse to induce pulmonary fibrosis, 4 weeks later, a mouse pulmonary fibrosis model was established.
Animal grouping: Mice were randomly divided into 4 groups, namely a blank control group, a model group, an itraconazole inhalation group, in which 2.5 mg/kg was inhaled for 3 minutes (2.5 mg/kg Inhalation group) and an itraconazole oral group, in which 15 mg/kg was orally administrated(15 mg/kg Oral group). The drugs were administered once a day for 22 consecutive days from the fifth day after modeling.
Detecting indexes: the mice were sacrificed after administration, the trachea was separated, the left lung was ligated, the bronchoalveolar lavage (BAL) was performed, the bronchoalveolar lavage fluid (BALF) was taken for white cell count and classification count, after the lung tissue was fixed with formalin, paraffin embedding, sectioning, H & E staining and Masson’s staining were carried out. The contents of transforming growth factor (TGF- β 1), mouse type I collagen (Col I) and hydroxyproline in lung tissue in supernatant of the BALF were detected by a kit.

## CCC(C)n1ncn(-c2ccc(N3CCN(c4ccc(OCC5COC(Cn6cncn6)(c6ccc(Cl)cc6Cl)O5)cc4)CC3)cc2)c1=O (stereo not drawn) [itraconazole]
2.5 mg/kg inhalation
  Collagen deposition in lung tissue: 62759.9±17865.8
  Content of Col I in BALF: 1.64 ± 0.64 ng/mL
  Content of TGF-β1 in BALF: 32.13 ± 25.97 pg/mL
  Content of hydroxyproline in lung tissue: 526.7 ±66.0 µg/g tissue
  Number of neutrophils in BALF: 12.08±5.85 1 × 10^4 cell/ml
  Total number of white blood cells in BALF: 26.13 ±5.93 1 × 10^4 cell/ml
15 mg/kg oral
  Collagen deposition in lung tissue: 166628.8±35819.8
  Content of Col I in BALF: 1.91 ± 0.86 ng/mL
  Content of TGF-β1 in BALF: 24.79 ± 12.72 pg/mL
  Content of hydroxyproline in lung tissue: 583.8 ±96.6 µg/g tissue
  Number of neutrophils in BALF: 13.71 ±7.58 1 × 10^4 cell/ml
  Total number of white blood cells in BALF: 29.13±10.99 1 × 10^4 cell/ml

Source: patent publication US20230310416A1, “SUSPENSION OF TRIAZOLE ANTIFUNGAL DRUG FOR ATOMIZER” (SHANGHAI FRONTIER HEALTH PHARMACEUTICAL TECHNOLOGY CO., LTD, priority 2020, published 2023)
